According to the NIST ThermoML archive (doi:10.1021/je300280s):
Several values for one entry are separate records, joined by “and”; a condition that tells them apart may be missing. Identical values can stand only once.

Legend:
[1] = xn = mol fraction of the nth substance listed; details: 101.3 kPa, Liquid, Vibrating tube method
[2] = excess molar enthalpy (molar enthalpy of mixing); xn = mol fraction of the nth substance listed; details: 101.3 kPa, Liquid, Flow calorimetry

CCCC(=O)OC [methyl butanoate] + O
Details | excess molar enthalpy, [2] | mass density, [1]
288.15 K, x1 = 0.000628 | -0.00684 kJ/mol and -0.00688 kJ/mol | 999.058 kg/m3
288.15 K, x1 = 0.000941 | -0.0103 kJ/mol | 999.037 kg/m3
288.15 K, x1 = 0.000943 | -0.0102 kJ/mol | 999.038 kg/m3
288.15 K, x1 = 0.001255 | -0.0134 kJ/mol | 999.019 kg/m3
288.15 K, x1 = 0.001257 | -0.0134 kJ/mol | 999.019 kg/m3
288.15 K, x1 = 0.001569 | -0.0169 kJ/mol | 998.999 kg/m3
288.15 K, x1 = 0.00157 | -0.0166 kJ/mol | 999.001 kg/m3
288.15 K, x1 = 0.001882 | -0.0198 kJ/mol | 998.985 kg/m3
288.15 K, x1 = 0.001884 | -0.0202 kJ/mol | 998.981 kg/m3
298.15 K, x1 = 0.000628 | -0.0051 kJ/mol and -0.00515 kJ/mol | 996.968 kg/m3 and 996.965 kg/m3
298.15 K, x1 = 0.000942 | -0.00771 kJ/mol and -0.00764 kJ/mol | 996.917 kg/m3 and 996.921 kg/m3
298.15 K, x1 = 0.001256 | -0.0101 kJ/mol | 996.885 kg/m3 and 996.884 kg/m3
298.15 K, x1 = 0.001569 | -0.0124 kJ/mol | 996.85 kg/m3
298.15 K, x1 = 0.00157 | -0.0126 kJ/mol | 996.838 kg/m3
298.15 K, x1 = 0.001882 | -0.0151 kJ/mol | 996.8 kg/m3
298.15 K, x1 = 0.001883 | -0.0147 kJ/mol | 996.81 kg/m3
298.15 K, x1 = 0.002195 | -0.0168 kJ/mol | 996.774 kg/m3
298.15 K, x1 = 0.002197 | -0.0169 kJ/mol | 996.773 kg/m3
308.15 K, x1 = 0.000626 | -0.0035 kJ/mol | 993.913 kg/m3
308.15 K, x1 = 0.000627 | -0.00351 kJ/mol | 993.914 kg/m3
308.15 K, x1 = 0.000939 | -0.00517 kJ/mol | 993.855 kg/m3
308.15 K, x1 = 0.000941 | -0.00518 kJ/mol | 993.855 kg/m3
308.15 K, x1 = 0.001253 | -0.00692 kJ/mol | 993.793 kg/m3
308.15 K, x1 = 0.001254 | -0.00675 kJ/mol | 993.798 kg/m3
308.15 K, x1 = 0.001565 | -0.00831 kJ/mol | 993.741 kg/m3
308.15 K, x1 = 0.001567 | -0.00833 kJ/mol | 993.742 kg/m3
308.15 K, x1 = 0.001878 | -0.0101 kJ/mol | 993.673 kg/m3
308.15 K, x1 = 0.00188 | -0.00991 kJ/mol | 993.682 kg/m3
308.15 K, x1 = 0.002191 | -0.0113 kJ/mol | 993.626 kg/m3
308.15 K, x1 = 0.002194 | -0.0114 kJ/mol | 993.63 kg/m3
318.15 K, x1 = 0.000941 | -0.00276 kJ/mol | 989.988 kg/m3
318.15 K, x1 = 0.000942 | -0.0028 kJ/mol | 989.983 kg/m3
318.15 K, x1 = 0.001254 | -0.00362 kJ/mol | 989.911 kg/m3
318.15 K, x1 = 0.001255 | -0.00365 kJ/mol | 989.908 kg/m3
318.15 K, x1 = 0.001567 | -0.00442 kJ/mol | 989.837 kg/m3
318.15 K, x1 = 0.001569 | -0.00444 kJ/mol | 989.832 kg/m3
318.15 K, x1 = 0.001879 | -0.00526 kJ/mol | 989.762 kg/m3
318.15 K, x1 = 0.001882 | -0.00519 kJ/mol | 989.758 kg/m3
318.15 K, x1 = 0.002192 | -0.00589 kJ/mol | 989.694 kg/m3
318.15 K, x1 = 0.002195 | -0.00597 kJ/mol | 989.679 kg/m3

CCCOC(C)=O [propyl ethanoate] + O
Details | excess molar enthalpy, [2] | mass density, [1]
288.15 K, x1 = 0.000935 | -0.0114 kJ/mol | 999.019 kg/m3
288.15 K, x1 = 0.001246 | -0.0152 kJ/mol | 998.986 kg/m3
288.15 K, x1 = 0.001248 | -0.0152 kJ/mol | 998.988 kg/m3
288.15 K, x1 = 0.001558 | -0.0189 kJ/mol | 998.959 kg/m3
288.15 K, x1 = 0.00156 | -0.0187 kJ/mol | 998.962 kg/m3
288.15 K, x1 = 0.001869 | -0.0224 kJ/mol | 998.934 kg/m3
288.15 K, x1 = 0.001871 | -0.0223 kJ/mol | 998.936 kg/m3
288.15 K, x1 = 0.00218 | -0.0259 kJ/mol | 998.909 kg/m3
288.15 K, x1 = 0.002182 | -0.0258 kJ/mol | 998.906 kg/m3
288.15 K, x1 = 0.002491 | -0.0294 kJ/mol | 998.876 kg/m3
288.15 K, x1 = 0.002494 | -0.0296 kJ/mol | 998.882 kg/m3
298.15 K, x1 = 0.000935 | -0.00863 kJ/mol | 996.903 kg/m3
298.15 K, x1 = 0.000936 | -0.00879 kJ/mol | 996.9 kg/m3
298.15 K, x1 = 0.000937 | -0.00887 kJ/mol | 996.898 kg/m3
298.15 K, x1 = 0.001247 | -0.0115 kJ/mol | 996.856 kg/m3
298.15 K, x1 = 0.001248 | -0.0116 kJ/mol | 996.852 kg/m3
298.15 K, x1 = 0.001249 | -0.0116 kJ/mol | 996.848 kg/m3
298.15 K, x1 = 0.001558 | -0.0145 kJ/mol | 996.807 kg/m3
298.15 K, x1 = 0.00156 | -0.0143 kJ/mol and -0.0144 kJ/mol | 996.803 kg/m3 and 996.805 kg/m3
298.15 K, x1 = 0.001869 | -0.0169 kJ/mol | 996.762 kg/m3
298.15 K, x1 = 0.001871 | -0.017 kJ/mol | 996.758 kg/m3
298.15 K, x1 = 0.001872 | -0.0169 kJ/mol | 996.748 kg/m3
298.15 K, x1 = 0.002181 | -0.0198 kJ/mol | 996.714 kg/m3
298.15 K, x1 = 0.002183 | -0.0195 kJ/mol and -0.0198 kJ/mol | 996.703 kg/m3 and 996.709 kg/m3
298.15 K, x1 = 0.002492 | -0.0225 kJ/mol | 996.669 kg/m3
298.15 K, x1 = 0.002494 | – | 996.669 kg/m3
298.15 K, x1 = 0.002495 | – | 996.655 kg/m3
308.15 K, x1 = 0.000936 | -0.00618 kJ/mol and -0.00617 kJ/mol | 993.831 kg/m3 and 993.832 kg/m3
308.15 K, x1 = 0.001247 | -0.00821 kJ/mol and -0.00823 kJ/mol | 993.761 kg/m3
308.15 K, x1 = 0.001559 | -0.0103 kJ/mol and -0.0102 kJ/mol | 993.691 kg/m3 and 993.692 kg/m3
308.15 K, x1 = 0.00187 | -0.012 kJ/mol and -0.0122 kJ/mol | 993.628 kg/m3 and 993.621 kg/m3
308.15 K, x1 = 0.002181 | -0.0139 kJ/mol and -0.014 kJ/mol | 993.559 kg/m3 and 993.557 kg/m3
308.15 K, x1 = 0.002492 | -0.0155 kJ/mol | 993.5 kg/m3 and 993.503 kg/m3
318.15 K, x1 = 0.000936 | -0.00381 kJ/mol | 989.957 kg/m3
318.15 K, x1 = 0.000937 | -0.0039 kJ/mol | 989.951 kg/m3
318.15 K, x1 = 0.001247 | -0.00499 kJ/mol | 989.872 kg/m3
318.15 K, x1 = 0.001248 | -0.00512 kJ/mol | 989.86 kg/m3
318.15 K, x1 = 0.001559 | -0.00619 kJ/mol | 989.782 kg/m3
318.15 K, x1 = 0.001561 | -0.00618 kJ/mol | 989.779 kg/m3
318.15 K, x1 = 0.00187 | -0.00731 kJ/mol | 989.693 kg/m3
318.15 K, x1 = 0.001873 | -0.00721 kJ/mol | 989.698 kg/m3
318.15 K, x1 = 0.002182 | -0.00842 kJ/mol | 989.605 kg/m3
318.15 K, x1 = 0.002184 | -0.0083 kJ/mol | 989.612 kg/m3
318.15 K, x1 = 0.002493 | -0.00923 kJ/mol | 989.536 kg/m3
318.15 K, x1 = 0.002496 | -0.00924 kJ/mol | 989.532 kg/m3
